Like-named read-outs stand apart in the source and are kept apart here.
Experiments:
H460 cells = experiment: Inhibition of H460 cancer cell proliferation (CTG, 72 h); type: cell-based; conditions: Homo sapiens, NCI-H460
Procedure: If not otherwise specified, IC50 values were measured by the following experimental methods:
c) The cell suspension was added to 96-well plate with 100 μL per well and 2000 cells/well of cell density.
a) Cells were plated for 24 hours, and then the compounds acted singly. 99 μL of growth medium was supplemented per well, and then 1 μL of 200× compound was added, gently shaken to ensure uniform mixing, and then placed in a 37° C., 5% CO2 incubator.
b) The cell plate was placed in the incubator for 72 hours.
b) 100 μL of CTG reagent (CelltiterGlo kit) was added to each well, the plate was placed in a rapid oscillator and shaken for 2 minutes, and then placed at room temperature for 30 minutes away from light.
c) The chemiluminescence signal value was read with Envision instrument.
The IC50 was calculated using GraphPad Prism 8 software and the IC50 (half inhibitory concentration) of the compounds was obtained using the following non-linear fitting formula: […]

NCI-H2228 = experiment: AKR1C3-dependent cytotoxicity, NSCLC cell line NCI-H2228; type: cell-based; conditions: Homo sapiens
Procedure: (§1) The tested compound was then added. The compound was dissolved in 100% DMSO at 200 times of the desired final test concentration. When the medicament was added, the compound was further diluted to 4 times of the desired final test concentration by using the complete medium. 50 μL of aliquots of the compound with specific concentration were added to the microwells containing 150 μL of medium, and then the final medicament concentration was obtained. […] The medicament was then washed. […] After the incubation was finished, the Alamar Blue was used to analyze and quantify the living cells.

NCI-H1944 = experiment: AKR1C3-dependent cytotoxicity, NSCLC cell line NCI-H1944; type: cell-based; conditions: Homo sapiens
Procedure: as §1

NCIH1755 = experiment: AKR1C3-dependent cytotoxicity, NSCLC cell line NCIH1755; type: cell-based; conditions: Homo sapiens, NCI-H1755
Procedure: as §1

[1] = Liver microsome stability, monkey; type: in vitro ADME; conditions: Monkey liver microsomes; with the addition of NADPH
Procedure: (§2) 1) Two individual experiments were performed.
(§3) All experiments were performed in duplicate.

[2] = Liver microsome stability, mouse; type: in vitro ADME; conditions: Mouse liver microsomes; with the addition of NADPH
Procedure: as §2, §3

NCI-H522 = experiment: AKR1C3-dependent cytotoxicity, NSCLC cell line NCI-H522; type: cell-based; conditions: Homo sapiens
Procedure: as §1

[3] = Liver microsome stability, human; type: in vitro ADME; conditions: Human liver microsomes; with the addition of NADPH
Procedure: as §2, §3

[4] = Liver microsome stability, rat; type: in vitro ADME; conditions: Rat liver microsomes; with the addition of NADPH
Procedure: as §2, §3

[5] = tested on: HuPrime model GA6201 human gastric cancer; conditions: for Tumor volume: AST-3424 5 mg/kg i.v.
Procedure: The test was divided into groups of the test drug Isocyclophosphamide 60 mg/kg group, the test drug AST-3424 5 mg/kg group, the test drug A compound 2.5 mg/kg and 5 mg/kg groups, and normal saline (pH 7.0-7.6) vehicle control group, a total of 5 groups, with 5 mice per group.
In the above dosing regimen, Isocyclophosphamide was designed based on the best dosing regimen with maximum safe dosage as recited in the document (Jessica D. Sun, Qian Liu, Dharmendra Ahluwalia, Damien J. Ferraro, Yan Wang, Don Jung, Mark D. Matteucci, and Charles P. Hart. Comparison of hypoxia-activated prodrug evofosfamide (TH-302) and ifosfamide in preclinical non-small cell lung cancer models [J]. Cancer Biology & Therapy, 2016, 17(4): 371-380).

NCIH2106 = experiment: AKR1C3-dependent cytotoxicity, NSCLC cell line NCIH2106; type: cell-based
Procedure: as §1

NCI-H23 = experiment: AKR1C3-dependent cytotoxicity, NSCLC cell line NCI-H23; type: cell-based; conditions: Homo sapiens
Procedure: as §1

NCI-H1563 = experiment: AKR1C3-dependent cytotoxicity, NSCLC cell line NCI-H1563; type: cell-based; conditions: Homo sapiens
Procedure: as §1

NCI-H1792 = experiment: AKR1C3-dependent cytotoxicity, NSCLC cell line NCI-H1792; type: cell-based; conditions: Homo sapiens
Procedure: as §1

P-gp = target: T1, P-gp (Homo sapiens, UniProt P08183); experiment: P-gp substrate evaluation, MDCKII-MDR1 penetration test with or without Verapamil; type: in vitro ADME
T1 construct: expressed in transfected cells; host or cells: MDCKII-MDR1 cells
Procedure: The conditions of the incubator were set as 37° C., 5% CO2, and 95% of the relative humidity.
After that, the MDCKII-MDR1 cells can be used for the penetration test.
(1) MDCKII-MDR1 transwell culture plate was taken out from the incubator.
(6) The upper and lower transportations were pooled and then incubated at 37° C. for 2 h.
After the sample tubes were vortexed for 10 min, and centrifuged at 3220 g for 30 min. […] Each sample was adopted to the three parallel incubation.
Efflux Ratio was calculated by the following formula: […]
Recovery was calculated by the following formula: […]

[6] = AST-3424 5 mg/kg i.v. QWx2, Day 38

T1 sequence (P08183 whole entry): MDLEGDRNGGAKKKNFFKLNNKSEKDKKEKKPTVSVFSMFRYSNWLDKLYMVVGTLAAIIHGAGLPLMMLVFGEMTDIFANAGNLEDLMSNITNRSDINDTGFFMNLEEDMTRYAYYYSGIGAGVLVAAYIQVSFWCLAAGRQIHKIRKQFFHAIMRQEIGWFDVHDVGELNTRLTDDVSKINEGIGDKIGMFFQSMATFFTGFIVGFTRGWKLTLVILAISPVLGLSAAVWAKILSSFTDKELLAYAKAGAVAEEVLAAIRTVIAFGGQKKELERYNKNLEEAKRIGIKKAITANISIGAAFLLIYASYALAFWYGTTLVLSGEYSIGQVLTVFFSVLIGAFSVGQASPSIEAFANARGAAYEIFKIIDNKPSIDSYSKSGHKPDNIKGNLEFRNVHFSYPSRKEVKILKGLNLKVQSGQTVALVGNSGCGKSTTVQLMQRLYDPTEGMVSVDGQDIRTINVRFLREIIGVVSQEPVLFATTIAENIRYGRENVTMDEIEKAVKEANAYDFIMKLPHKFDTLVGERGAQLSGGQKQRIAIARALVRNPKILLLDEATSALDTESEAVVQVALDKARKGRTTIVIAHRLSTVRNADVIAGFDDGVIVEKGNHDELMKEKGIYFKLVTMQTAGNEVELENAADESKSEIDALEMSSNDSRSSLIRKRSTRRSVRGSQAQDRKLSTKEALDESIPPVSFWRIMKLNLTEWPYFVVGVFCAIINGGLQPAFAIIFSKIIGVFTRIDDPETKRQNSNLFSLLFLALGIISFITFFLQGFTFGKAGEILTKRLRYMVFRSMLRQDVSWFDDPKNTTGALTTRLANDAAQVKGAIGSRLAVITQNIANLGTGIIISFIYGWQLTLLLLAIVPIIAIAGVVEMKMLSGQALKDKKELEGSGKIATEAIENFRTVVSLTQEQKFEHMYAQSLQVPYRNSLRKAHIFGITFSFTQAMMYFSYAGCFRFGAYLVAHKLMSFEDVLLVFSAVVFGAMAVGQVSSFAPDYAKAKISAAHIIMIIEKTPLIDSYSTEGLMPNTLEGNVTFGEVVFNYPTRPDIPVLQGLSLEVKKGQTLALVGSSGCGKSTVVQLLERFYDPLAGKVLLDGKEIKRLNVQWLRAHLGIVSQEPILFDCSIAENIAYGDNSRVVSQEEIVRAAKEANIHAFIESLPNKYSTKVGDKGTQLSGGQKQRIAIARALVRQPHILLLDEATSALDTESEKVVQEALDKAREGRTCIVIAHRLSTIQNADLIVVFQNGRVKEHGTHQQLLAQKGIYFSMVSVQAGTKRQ

`C[C@@H](OP(=O)(N1CC1)N1CC1)c1ccc([N+](=O)[O-])c(Oc2cccc(C(=O)N(C)C)c2)c1` [AST-3424] showed an IC50 (H460 cells) of 0.11 nM, an IC50 (NCI-H2228) of 0.21 nM and an IC50 (NCI-H1944) of 2.3 nM. The IC50 (NCIH1755) was 8.2 nM, the “Percentage remaining after 30 minutes” value [1] was 0.03% and the “Percentage remaining after 30 minutes” value [2] was 3.1%. For the same compound, the IC50 (NCI-H522) was greater than 1000 nM, the “Percentage remaining after 30 minutes” value [3] was 10.65% and the “Percentage remaining after 30 minutes” value [4] was 8.79%. For the same compound, the “Relative tumor volume (x ± S)” value [5, 6] was 0.11 ± 0.07, the “T/C (%)” value [5, 6] was 1.21% and the “TGI (%)” value [5, 6] was 98.79%. For the same compound, the “Tumor volume (x ± S)” value [5, 6] was 12.65 ± 7.91, the Tumor volume ([5]; 0 day) was 94.19 mm^3 and the Tumor volume ([5]; 3 days) was 114.98 mm^3. It also gave a Tumor volume ([5]; 7 days) of 84.33 mm^3, a Tumor volume ([5]; 10 days) of 77.04 mm^3 and a Tumor volume ([5]; 14 days) of 63.59 mm^3. For the same compound, the Tumor volume ([5]; 17 days) was 52.08 mm^3, the Tumor volume ([5]; 21 days) was 45.81 mm^3 and the Tumor volume ([5]; 24 days) was 40.55 mm^3. It also gave a Tumor volume ([5]; 28 days) of 30.28 mm^3, a Tumor volume ([5]; 31 days) of 23.24 mm^3 and a Tumor volume ([5]; 35 days) of 18.55 mm^3. For the same compound, the Tumor volume ([5]; 38 days) was 12.65 mm^3, the Tumor volume ([5]; 42 days) was 13.42 mm^3 and the Tumor volume ([5]; 45 days) was 10.82 mm^3. For the same compound, the Tumor volume ([5]; 49 days) was 8.15 mm^3, the “body weight change / toxic effects” value ([5]; GA6201 model, tested doses) was “no toxic effects” and the IC50 (NCIH2106) was greater than 1000 nM. It also gave an IC50 (NCI-H23) greater than 1000 nM, an IC50 (NCI-H1563) of 2.5 nM and an IC50 (NCI-H1792) of 4.5 nM. For the same compound, the P-gp substrate (P-gp; MDCKII-MDR1, with and without Verapamil) was “Pgp substrate”, the Papp A→B at 2 h (P-gp; dog, MDCK-MDR1) was 1.95 ×10⁻⁶ cm/s and the Papp B→A at 2 h (P-gp; dog, MDCK-MDR1) was 34.5 ×10⁻⁶ cm/s. For the same compound, the recovery at 2 h (P-gp; dog, MDCK-MDR1, Verapamil 0 μM, read-out: Recovery (%) AP-BL) was 79.1%, the recovery at 2 h (P-gp; dog, MDCK-MDR1, Verapamil 0 μM, read-out: Recovery (%) BL-AP) was 90.6% and the recovery at 2 h (P-gp; dog, MDCK-MDR1, with Verapamil 100 μM, Verapamil 100 μM, read-out: Recovery (%) AP-BL) was 92.6%. For the same compound, the recovery at 2 h (P-gp; dog, MDCK-MDR1, with Verapamil 100 μM, Verapamil 100 μM, read-out: Recovery (%) BL-AP) was 96.3%.
